Structures can show the parent of a compound that is named as a salt.
What was measured:
[1] = in the presence of iron (III)
[2] = Stability of urea on exposure to higher temperature; type: physicochemical; details: 180° C. for 8 h
Protocol: In order to assess the stability of synthetic acids containing urea, the stability of urea was tested by only considering its exposure to higher temperature. Urea 50% diluted with 50% seawater @ 180° C. for 8 h. […] This confirms that synthetic acids containing urea have decreasing stability when heated above 90° C. and are less desirable to use than compositions according to the present invention which have stability when exposed to temperatures above 200° C.

Compound | pH of full precipitation [1] | observation after exposure to high temperature [2] | pH after exposure to high temperature [2] | pH before exposure to high temperature [2]
Cl [HCl, hydrochloric acid] | approximately 2.5 |  |  | 
Urea [Urea 50% diluted with 50% seawater] |  | strong ammonia smell | 9.44 | 7.61

From patent US11795381B2, “Using synthetic acid compositions as alternatives to conventional acids in the oil and gas industry” (priority 2016, dated 2023)
